Test results as given in patent US8022088B2, “Substituted bicyclic and tricyclic thrombin receptor antagonists” (Schering Corporation, priority 2006, dated 2011).

Target: T1, thrombin receptor (Homo sapiens, UniProt P25116)
T1 construct: tissue North Jersey Blood Center (East Orange, N.J.); host or cells: platelet membranes prepared from platelet concentrates
T1 sequence (P25116 22-425): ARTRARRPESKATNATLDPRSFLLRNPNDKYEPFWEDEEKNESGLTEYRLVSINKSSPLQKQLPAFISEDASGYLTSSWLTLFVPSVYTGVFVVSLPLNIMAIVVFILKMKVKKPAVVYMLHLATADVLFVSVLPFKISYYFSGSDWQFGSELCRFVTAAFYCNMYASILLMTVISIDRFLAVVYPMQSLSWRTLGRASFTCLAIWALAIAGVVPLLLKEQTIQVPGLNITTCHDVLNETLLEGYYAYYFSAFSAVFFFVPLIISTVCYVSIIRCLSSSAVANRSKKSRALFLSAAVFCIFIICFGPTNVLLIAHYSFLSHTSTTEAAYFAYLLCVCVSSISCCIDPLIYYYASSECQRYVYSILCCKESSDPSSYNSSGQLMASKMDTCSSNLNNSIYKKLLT
Experiment: High throughput thrombin receptor radioligand binding assay ([3H]haTRAP, platelet membranes)
Conditions: [3H]haTRAP binding to platelet membranes
Procedure: A(pF-F)R(ChA)(hR)(I2—Y)—NH2 (1.03 mg) and 10% Pd/C (5.07 mg) were suspended in DMF (250 μl) and diisopropylethylamine (10 μl). The vessel was attached to the tritium line, frozen in liquid nitrogen and evacuated. Tritium gas (342 mCi) was then added to the flask, which was stirred at room temperature for 2 hours. At the completion of the reaction, the excess tritium was removed and the reacted peptide solution was diluted with DMF (0.5 ml) and filtered to remove the catalyst. The collected DMF solution of the crude peptide was diluted with water and freeze dried to remove the labile tritium. The solid peptide was redissolved in water and the freeze drying process repeated. The tritiated peptide ([^3H]haTRAP) was dissolved in 0.5 ml of 0.1% aqueous TFA and purified by HPLC using the following conditions: column, Vydac™ C18, 25 cm×9.4 mm I.D.; mobile phase, (A) 0.1% TFA in water, (B) 0.1% TFA in CH3CN; gradient, (A/B) from 100/0 to 40/60 over 30 min; flow rate, 5 ml/min; detection, UV at 215 nm. The radiochemical purity of [^3H]haTRAP was 99% as analyzed by HPLC. A batch of 14.9 mCi at a specific activity of 18.4 Ci/mmol was obtained.
Platelet membranes were prepared using a modification of the method of Natarajan et al. (Natarajan et al, Int. J. Peptide Protein Res. 45:145-151 (1995)) from 20 units of platelet concentrates obtained from the North Jersey Blood Center (East Orange, N.J.) within 48 hours of collection. All steps were carried out at 4° C. under approved biohazard safety conditions. Platelets were centrifuged at 100×g for 20 minutes at 4° C. to remove red cells. The supernatants were decanted and centrifuged at 3000×g for 15 minutes to pellet platelets. Platelets were re-suspended in 10 mM Tris-HCl, pH 7.5, 150 mM NaCl, 5 mM EDTA, to a total volume of 200 ml and centrifuged at 4400×g for 10 minutes. This step was repeated two additional times. Platelets were re-suspended in 5 mM Tris-HCl, pH 7.5, 5 mM EDITA to a final volume of approximately 30 ml and were homogenized with 20 strokes in a Dounce™ homogenizer. Membranes were pelleted at 41,000×g, re-suspended in 40-50 ml 20 mM Tris-HCl, pH 7.5, 1 mM EDTA, 0.1 mM dithiothreitol, and 10 ml aliquots were frozen in liquid N2 and stored at −80° C. To complete membrane preparation, aliquots were thawed, pooled, and homogenized with 5 strokes of a Dounce homogenizer. Membranes were pelleted and washed 3 times in 10 mM triethanolamine-HCl, pH 7.4, 5 mM EDTA, and re-suspended in 20-25 ml 50 mM Tris-HCl, pH 7.5, 10 mM MgCl2, 1 mM EGTA, and 1% DMSO. Aliquots of membranes were frozen in liquid N2 and stored at −80° C. Membranes were stable for at least 3 months. 20 units of platelet concentrates typically yielded 250 mg of membrane protein. Protein concentration was determined by a Lowry assay (Lowry et al., J. Biol. Chem., 193:265-275 (1951)).
Thrombin receptor antagonists were screened using a modification of the thrombin receptor radioligand binding assay of Ahn et al. (Ahn et al., Mol. Pharmacol, 51:350-356 (1997)). The assay was performed in 96 well Nunc plates (Cat. No. 269620) at a final assay volume of 200 μl. Platelet membranes and [^3H]haTRAP were diluted to 0.4 mg/ml and 22.2 nM, respectively, in binding buffer (50 mM Tris-HCl, pH 7.5, 10 mM MgCl2, 1 mM EGTA, 0.1% BSA). Stock solutions (10 mM in 100% DMSO) of test compounds were further diluted in 100% DMSO. Unless otherwise indicated, 10 μl of diluted compound solutions and 90 μl of radioligand (a final concentration of 10 nM in 5% DMSO) were added to each well, and the reaction was started by the addition of 100 μl of membranes (40 μg protein/well). […] Compounds were tested at three concentrations (0.1, 1 and 10 μM). The plates were covered and vortex-mixed gently on a Lab-Line™ Titer Plate Shaker for 1 hour at room temperature. Packard UniFilter™ GF/C filter plates were soaked for at least 1 hour in 0.1% polyethyleneimine. […]

C[C@@H]1[C@@H](C)[C@H](/C=C/c2ccc(-c3ccccc3C#N)cn2)C[C@H]2OC(=O)C[C@@H]12 [Compound 2]
IC50: 16 nM | Ki: 11 nM

N#Cc1cccc(-c2ccc(/C=C/[C@@H]3C[C@H]4OC(=O)C[C@H]4[C@@H]4CCCC[C@H]43)nc2)c1 [Compound 5]
IC50: 6.7 nM | Ki: 4.3 nM

C[C@@H]1[C@@H](C)[C@H](/C=C/c2ccc(-c3ccccc3C#N)cn2)C[C@@H]2OC(=O)C[C@@H]12 [Compound 1]
IC50: 45 nM

O=C1C[C@H]2[C@@H]3CCCC[C@H]3[C@H](/C=C/c3ccc(-c4cccc(F)c4)cn3)C[C@H]2O1 [Compound 3]
IC50: 4.8 nM | Ki: 3.1 nM

O=C1C[C@H]2[C@@H]3CCCC[C@H]3[C@H](/C=C/c3ccc(-c4cc(Cl)ccc4Cl)cn3)C[C@H]2O1 [Compound 4]
IC50: 20 nM | Ki: 13 nM
